This experiment addresses KRas (Homo sapiens, UniProt P01116, G12C). Description: KRas degradation in H2030 cells by Western blot (data of Table 5). The experiment is classed as cell-based. Also noted: host or cells: NCI-H2030. The settings on record: H2030 cells serum starved 24 hours, KRas immunoblot; for H2030 Degradation at 0.3 uM: treated 24 hours with 0.3 uM; for H2030 Degradation at 1 uM: treated 24 hours with 1 uM; for H2030 Degradation at 3 uM: treated 24 hours with 3 uM. The protocol: Cell Lines, Antibodies, and Reagents. NCI-H2030 (CRL-5914) and SW1573 (CRL-2170) cells were purchased from ATCC. Both cell lines are homozygous for the G12C mutation in KRas. NCI-H2030 cells were cultured in RPMI-1640 medium containing 1% penicillin-streptomycin and 10% fetal bovine serum (FBS). SW1573 cells were cultured in DMEM containing 1% penicillin-streptomycin and 10% FBS. The KRas detection antibody (Cat. No. LS-C175665) was purchased from LifeSpan Biosciences and was used at a dilution of 1:2000. GAPDH was detected using an antibody purchased from Cell Signaling Technology (Cat. No. 5174) and was diluted 1:3000. Secondary anti-mouse and anti-rabbit detection antibodies were purchased from Cell Signaling Technology (Cat. Nos. 7076 and 7074, respectively).
Compound Treatment and Western Blotting of the Data of Table 5. H2030 cells in 12-well plates were serum starved for 24 hours, and then treated with 0.3 uM, 1 uM, and 3 uM of the indicated bifunctional compound, for 24 hours. Cells were lysed in a Cell Signaling Technology Cell Lysis Buffer (Cat. No. #9803) supplemented with protease inhibitors, and proteins were separated by SDS-PAGE. KRas was detected by immunoblotting using the LSBio antibody (Cat. No. LS-C175665).
DC50 is the half-maximal degradation concentration—i.e., the concentration at which 50% degradation is observed. DMax is the maximum degradation efficacy is achieved—i.e., the maximal degradation observed) degradation data.
On the technique in general: In western blotting, separated proteins are transferred to a membrane and probed.

Take `CCC(=O)N1CCN(c2nc(NCCC(=O)N(C)CCOCCOCCOCCOCCOCC(=O)N[C@H](C(=O)N3C[C@H](O)C[C@H]3C(=O)N[C@@H](C)c3ccc(-c4scnc4C)cc3)C(C)(C)C)nc3c(F)c(-c4cc(O)cc5ccccc45)c(Cl)cc23)CC1` [compound 7, (2S,4R)-1-((2S)-2-(tert-butyl)-24-((6-chloro-8-fluoro-7-(3-hydroxynaphthalen-1-yl)-4-(4-propionylpiperazin-1-yl)quinazolin-2-yl)amino)-21-methyl-4,22-dioxo-6,9,12,15,18-pentaoxa-3,21-diazatetracosanoyl)-4-hydroxy-N-((1S)-1-(4-(4-methyl-5H-114-thiazol-5-yl)phenyl)ethyl) pyrrolidine-2-carboxamide]: the “H2030 Degradation at 0.3 uM” value was “C (C < 25)”, the “H2030 Degradation at 1 uM” value is on record as “C (C < 25)” and the “H2030 Degradation at 3 uM” value is “C (C < 25)”.

Take `CCC(=O)N1CCN(c2nc(NCCC(=O)N(C)CCOCCOCCOCCOCCOc3ccc4c(c3)CN(C3CCC(=O)NC3=O)C4=O)nc3c(F)c(-c4cc(O)cc5ccccc45)c(Cl)cc23)CC1` (stereo not drawn) [compound 10, 3-((6-chloro-8-fluoro-7-(3-hydroxynaphthalen-1-yl)-4-(4-propionylpiperazin-1-yl)quinazolin-2-yl)amino)-N-(14-((2-(2,6-dioxopiperidin-3-yl)-1-oxoisoindolin-5-yl)oxy)-3,6,9,12-tetraoxatetradecyl)-N-methylpropanamide]: the “H2030 Degradation at 0.3 uM” value is reported as “C (C < 25)”, the “H2030 Degradation at 1 uM” value is given as “C (C < 25)” and the “H2030 Degradation at 3 uM” value was “C (C < 25)”.

Regarding `C=CC(=O)N1CCN(c2nc(NCCC(=O)N(C)CCOCCOCCOCC(=O)N[C@H](C(=O)N3C[C@H](O)C[C@H]3C(=O)N[C@@H](C)c3ccc(-c4scnc4C)cc3)C(C)(C)C)nc3c(F)c(-c4cc(O)cc5ccccc45)c(Cl)cc23)CC1` [compound 4, (2S,4R)-1-((2S)-18-((4-(4-acryloylpiperazin-1-yl)-6-chloro-8-fluoro-7-(3-hydroxynaphthalen-1-yl)quinazolin-2-yl)amino)-2-(tert-butyl)-15-methyl-4,16-dioxo-6,9,12-trioxa-3,15-diazaoctadecanoyl)-4-hydroxy-N-((S)-1-(4-(4-methylthiazol-5-yl)phenyl)ethyl) pyrrolidine-2-carboxamide], the “H2030 Degradation at 0.3 uM” value is “C (C < 25)”, the “H2030 Degradation at 1 uM” value is recorded as “B (25 ≤ B < 50)” and the “H2030 Degradation at 3 uM” value was “B (25 ≤ B < 50)”.

For `CCC(=O)N1CCN(c2nc(NCCC(=O)N(C)CCOCCOCCOCC(=O)N[C@H](C(=O)N3C[C@H](O)C[C@H]3C(=O)N[C@@H](C)c3ccc(-c4scnc4C)cc3)C(C)(C)C)nc3c(F)c(-c4cc(O)cc5ccccc45)c(Cl)cc23)CC1` [compound 9, (2S,4R)-1-((S)-2-(tert-butyl)-18-((6-chloro-8-fluoro-7-(3-hydroxynaphthalen-1-yl)-4-(4-propionylpiperazin-1-yl)-5H-312-quinazolin-2-yl)amino)-15-methyl-4,16-dioxo-6,9,12-trioxa-3,15-diazaoctadecanoyl)-4-hydroxy-N-((S)-1-(4-(4-methyl-312-thiazol-5-yl)phenyl)ethyl) pyrrolidine-2-carboxamide], the “H2030 Degradation at 0.3 uM” value was “C (C < 25)”, the “H2030 Degradation at 1 uM” value was “C (C < 25)” and the “H2030 Degradation at 3 uM” value is recorded as “C (C < 25)”.

As for `CCC(=O)N1CCN(c2nc(NCCC(=O)N(C)CCOCCOCCOCCNc3cccc4c3C(=O)N(C3CCC(=O)NC3=O)C4=O)nc3c(F)c(-c4cc(O)cc5ccccc45)c(Cl)cc23)CC1` (stereo not drawn) [compound 8, 3-((6-chloro-8-fluoro-7-(3-hydroxynaphthalen-1-yl)-4-(4-propionylpiperazin-1-yl)quinazolin-2-yl)amino)-N-(2-(2-(2-(2-((2-(2,6-dioxopiperidin-3-yl)-1,3-dioxoisoindolin-4-yl)amino)ethoxy)ethoxy)ethoxy)ethyl)-N-methylpropanamide], the “H2030 Degradation at 0.3 uM” value was “C (C < 25)”, the “H2030 Degradation at 1 uM” value is recorded as “C (C < 25)” and the “H2030 Degradation at 3 uM” value was “C (C < 25)”.

With `C=CC(=O)N1CCN(c2nc(NCCC(=O)N(C)CCOCCOCCOCCOCCOCC(=O)N[C@H](C(=O)N3C[C@H](O)C[C@H]3C(=O)N[C@@H](C)c3ccc(-c4scnc4C)cc3)C(C)(C)C)nc3c(F)c(-c4cc(O)cc5ccccc45)c(Cl)cc23)CC1` [compound 2, (2S,4R)-1-((2S)-24-((4-(4-acryloylpiperazin-1-yl)-6-chloro-8-fluoro-7-(3-hydroxynaphthalen-1-yl)quinazolin-2-yl)amino)-2-(tert-butyl)-21-methyl-4,22-dioxo-6,9,12,15,18-pentaoxa-3,21-diazatetracosanoyl)-4-hydroxy-N-((S)-1-(4-(4-methylthiazol-5-yl)phenyl)ethyl) pyrrolidine-2-carboxamide], the “H2030 Degradation at 0.3 uM” value is listed as “C (C < 25)”, the “H2030 Degradation at 1 uM” value was “A (A ≥ 50)” and the “H2030 Degradation at 3 uM” value is reported as “A (A ≥ 50)”.

`C=CC(=O)N1CCN(c2nc(NCCC(=O)N(C)CCOCCOCCOCCOCCOc3ccc4c(c3)CN(C3CCC(=O)NC3=O)C4=O)nc3c(F)c(-c4cc(O)cc5ccccc45)c(Cl)cc23)CC1` (stereo not drawn) [compound 5, 3-((4-(4-acryloylpiperazin-1-yl)-6-chloro-8-fluoro-7-(3-hydroxynaphthalen-1-yl)quinazolin-2-yl)amino)-N-(14-((2-(2,6-dioxopiperidin-3-yl)-1-oxoisoindolin-5-yl)oxy)-3,6,9,12-tetraoxatetradecyl)-N-methylpropanamide]: the “H2030 Degradation at 0.3 uM” value is reported as “C (C < 25)”, the “H2030 Degradation at 1 uM” value is “B (25 ≤ B < 50)” and the “H2030 Degradation at 3 uM” value is recorded as “B (25 ≤ B < 50)”.

Turning to `C=CC(=O)N1CCN(c2nc(NCCC(=O)N(C)CCOCCOCCOCCOCC(=O)N[C@H](C(=O)N3C[C@H](O)C[C@H]3C(=O)N[C@@H](C)c3ccc(-c4scnc4C)cc3)C(C)(C)C)nc3c(F)c(-c4cc(O)cc5ccccc45)c(Cl)cc23)CC1` [compound 1, (2S,4R)-1-((2S)-21-((4-(4-acryloylpiperazin-1-yl)-6-chloro-8-fluoro-7-(3-hydroxynaphthalen-1-yl)quinazolin-2-yl)amino)-2-(tert-butyl)-18-methyl-4,19-dioxo-6,9,12,15-tetraoxa-3,18-diazahenicosanoyl)-4-hydroxy-N-((S)-1-(4-(4-methylthiazol-5-yl)phenyl)ethyl) pyrrolidine-2-carboxamide], the “H2030 Degradation at 0.3 uM” value is recorded as “C (C < 25)”, the “H2030 Degradation at 1 uM” value was “A (A ≥ 50)” and the “H2030 Degradation at 3 uM” value is recorded as “A (A ≥ 50)”.

Consider `CCC(=O)N1CCN(c2nc(NCCC(=O)N(C)CCOCCOCCOCCOCC(=O)N[C@H](C(=O)N3C[C@H](O)C[C@H]3C(=O)N[C@@H](C)c3ccc(-c4scnc4C)cc3)C(C)(C)C)nc3c(F)c(-c4cc(O)cc5ccccc45)c(Cl)cc23)CC1` [compound 6, (2S,4R)-1-((2S)-2-(tert-butyl)-21-((6-chloro-8-fluoro-7-(3-hydroxynaphthalen-1-yl)-4-(4-propionylpiperazin-1-yl)quinazolin-2-yl)amino)-18-methyl-4,19-dioxo-6,9,12,15-tetraoxa-3,18-diazahenicosanoyl)-4-hydroxy-N-((S)-1-(4-(4-methylthiazol-5-yl)phenyl)ethyl) pyrrolidine-2-carboxamide], for which the “H2030 Degradation at 0.3 uM” value is listed as “C (C < 25)”, the “H2030 Degradation at 1 uM” value is recorded as “C (C < 25)” and the “H2030 Degradation at 3 uM” value was “C (C < 25)”.

The values above are taken from patent US12552783B2, “Modulators of proteolysis and associated methods of use” (Arvinas Operations, Inc., priority 2018, dated 2026).
